Here are results for 1 compound from US8722849B2, “Polypeptides” (Novo Nordisk A/S, priority 2011, dated 2014).

In brackets after ≈: the same amount, converted by molar mass. Read-outs that look alike come from different tables or passages of the source. Starred links: 1 amine or outer side, 2 acyl side, 3 side chain; linkers in the order of their positions; H or OH if unused. Positions of bridges follow the written chain, without caps; N, C: chain ends. Residues, ends and D or L forms follow the SMILES beside them. *: point of attachment. C20 diacid = O=C(O)CCCCCCCCCCCCCCCCCCC(=O)*; γGlu = O=C(O)[C@H](CCC(=O)[*:2])N[*:1] Bounds are passed on as bounds.

The solubility is the dissolved amount per volume that the medium holds. A word on the EC50: it is the concentration that produces a half-maximal response.

Data set [1] is described as follows: Assay (IV) determination of solubility. The data set is classed as physicochemical. Summed up:
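Stock ~500 nmol/ml in water; 1:1 with 100 mM buffer, pH 3.0–8.0 (glycylglycine ≤5.0, bistrispropane ≥6.0); 18 h RT; spin; HPLC quantitation of soluble polypeptide.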

The target of data set [2] is T1, human calcitonin receptor (Homo sapiens, UniProt P30988).
T1 construct: expressed in transfected cells; host or cells: BHK570
T1 sequence (P30988 25-474): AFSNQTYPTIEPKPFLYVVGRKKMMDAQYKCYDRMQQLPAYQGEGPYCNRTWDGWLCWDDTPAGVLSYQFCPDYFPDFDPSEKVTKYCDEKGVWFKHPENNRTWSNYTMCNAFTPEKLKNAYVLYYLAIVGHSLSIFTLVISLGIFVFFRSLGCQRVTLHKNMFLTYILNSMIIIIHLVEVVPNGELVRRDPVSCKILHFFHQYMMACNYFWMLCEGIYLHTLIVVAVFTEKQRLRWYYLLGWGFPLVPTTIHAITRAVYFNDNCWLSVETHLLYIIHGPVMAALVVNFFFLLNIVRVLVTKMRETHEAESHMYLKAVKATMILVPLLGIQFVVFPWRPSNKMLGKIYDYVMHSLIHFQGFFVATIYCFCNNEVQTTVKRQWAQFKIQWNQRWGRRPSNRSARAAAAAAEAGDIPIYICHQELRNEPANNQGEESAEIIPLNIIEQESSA
Put plainly: Assay (II)a functional CRE-luciferase assay, human calcitonin receptor. The format is cell-based. The settings on record: Table 7; human calcitonin (CTa) receptor. An excerpt: (§1) 1. Luciferase Assay Outline
(§2) Activation of calcitonin and amylin (coexpression of calcitonin receptor and receptor activity modifying proteins (RAMP)) receptors lead to increased intracellular concentrations of cAMP. Consequently, transcription is activated by promoters containing multiple copies of the cAMP response element (CRE). It is thus possible to measure amylin activity by the use of a CRE luciferase reporter gene introduced into BHK cells also expressing calcitonin or amylin receptors.
(§3) A BHK570 cell line was stably transfected with the human calcitonin receptor and a CRE-responsive luciferase reporter gene. The cell line was further transfected with RAMP-3, using standard methods. This turns the calcitonin receptor into an amylin 3(a) receptor. Methotrexate, Neomycin, and Hygromycin are selection markers for luciferase, the calcitonin receptor, and RAMP-3, respectively.
(§4) To perform activity assays, BHK calcitonin (a) receptor- or amylin 3(a)-receptor/CRE-luc cells were seeded in white 96 well culture plates at a density of about 20.000 cells/well. […] Further, 50 μl/well of standard or sample in assay buffer were added. After 3 hours incubation at 37° C. and 5% CO2, the assay medium with standard or sample were removed and replaced by 100 μl/well PBS. Further, 100 μl/well LucLite™ was added. The plates were sealed and incubated at room temperature for 30 minutes. Finally, luminescence was measured on a TopCounter (Packard) in SPC (single photon counting) mode.

In data set [3] the target is T2, human amylin receptor (amylin 3(a) receptor: human calcitonin receptor + RAMP-3) (Homo sapiens, UniProt O60896+P30988).
T2 construct: expressed in transfected cells; host or cells: BHK570
T2 sequence (P30988 25-474): T1 sequence (P30988 25-474)
T2 sequence (O60896 24-148 partner): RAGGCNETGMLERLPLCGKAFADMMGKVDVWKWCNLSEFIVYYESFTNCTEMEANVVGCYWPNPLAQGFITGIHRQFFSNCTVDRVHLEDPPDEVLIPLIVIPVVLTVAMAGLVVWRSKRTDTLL
Nature of the data set: Assay (II)a functional CRE-luciferase assay, human amylin receptor. The format is cell-based. The settings on record: Table 2; BHK amylin 3(a)-receptor/CRE-luc cells.
Excerpt: as §1, §2, §3, §4

With `CC[C@H](C)[C@H](NC(=O)[C@@H]1CCCN1C(=O)CNC(=O)[C@H](Cc1ccccc1)NC(=O)[C@H](CC(N)=O)NC(=O)[C@H](CC(N)=O)NC(=O)[C@H](CO)NC(=O)[C@H](CO)NC(=O)[C@H](CCCNC(=N)N)NC(=O)[C@@H](NC(=O)[C@H](CC(C)C)NC(=O)[C@H](Cc1ccccc1)NC(=O)[C@H](CCC(=O)O)NC(=O)[C@H](C)NC(=O)[C@H](CC(C)C)NC(=O)[C@H](CCCNC(=N)N)NC(=O)[C@H](CCC(N)=O)NC(=O)[C@@H](NC(=O)[C@H](C)NC(=O)[C@@H]1CSSC[C@H](NC(=O)[C@H](Cc2cnc[nH]2)NC(=O)CC[C@H](NC(=O)CCCCCCCCCCCCCCCCCCC(=O)O)C(=O)O)C(=O)N[C@@H](CC(N)=O)C(=O)N[C@@H]([C@@H](C)O)C(=O)N[C@@H](C)C(=O)N[C@@H]([C@@H](C)O)C(=O)N1)[C@@H](C)O)C(C)C)C(=O)N[C@@H](CC(C)C)C(=O)N1CCC[C@H]1C(=O)N1CCC[C@H]1C(=O)N[C@H](C(=O)N[C@@H](CC(N)=O)C(=O)N[C@H](C(=O)NCC(=O)N[C@@H](CO)C(=O)N[C@@H](CC(N)=O)C(=O)N[C@H](C(=O)N[C@@H](Cc1ccc(O)cc1)C(N)=O)[C@@H](C)O)C(C)C)[C@@H](C)O` [Example 15, N-alpha-[(S)-4-Carboxy-4-(19-carboxynonadecanoylamino)butyryl]-[His1,Glu14,Arg18]-pramlintide] ({C20 diacid-γGlu}-HCNTATCATQRLAEFLVRSSNNFGPILPPTNVGSNTY-NH2; disulfide 2-7), the solubility at 18 h is 56 µM (≈ 249 µg/mL) in data set [1] (bistrispropane buffer, pH 7.5, pH 7.5, read-out: Solubility pH 7.5); 134 µM (≈ 596 µg/mL) in data set [1] (bistrispropane buffer, pH 8, pH 8.0, read-out: Solubility pH 8.0); above 200 µM in data set [1] (glycylglycine buffer, pH 3, pH 3.0, read-out: Solubility pH 3.0); above 200 µM in data set [1] (glycylglycine buffer, pH 4, pH 4.0, 18 hours at room temperature, Table 2, read-out: Solubility pH 4.0); above 200 µM in data set [1] (glycylglycine buffer, pH 4, pH 4.0, read-out: Solubility pH 4.0); 10 µM (≈ 44.5 µg/mL) in data set [1] (pH 5.0, read-out: Solubility pH 5.0). For the same compound, the solubility at 18 h in data set [1] (pH 6.0, read-out: Solubility pH 6.0) was found to be 1 µM (≈ 4.45 µg/mL); in data set [1] (pH 6.5, read-out: Solubility pH 6.5) it was 1 µM (≈ 4.45 µg/mL); in data set [1] (pH 7.0, read-out: Solubility pH 7.0), 10 µM (≈ 44.5 µg/mL). Also, the EC50 was 0.125 nM in data set [2] and 0.083 nM in data set [3].
